Like-named read-outs stand apart in the source and are kept apart here.
Assays:
BRM = BRM (Homo sapiens, UniProt P51531); test: ATPase catalytic activity assay of BRM (ADP-Glo); format: biochemical; conditions: for IC50: read-out: BRM IC50 (μM)*
Outline: (§1)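 Measurement is luminescence, reflecting ADP produced by ATPase turnover. The two-step ADP-Glo detection consists of ATP depletion for 40 min and ADP-to-ATP conversion with luciferase for 60 min, both at room temperature.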

BRG-1 = BRG-1 (Homo sapiens, UniProt P51532); test: ATPase catalytic activity assay of BRG-1 (ADP-Glo); format: biochemical; conditions: ATPase catalytic activity, ADP-Glo; for IC50: read-out: BRG1 IC50 (μM)*; for Emax: read-out: BRG1 Max % Inhibition
Sequence of BRG-1 (P51532 whole entry): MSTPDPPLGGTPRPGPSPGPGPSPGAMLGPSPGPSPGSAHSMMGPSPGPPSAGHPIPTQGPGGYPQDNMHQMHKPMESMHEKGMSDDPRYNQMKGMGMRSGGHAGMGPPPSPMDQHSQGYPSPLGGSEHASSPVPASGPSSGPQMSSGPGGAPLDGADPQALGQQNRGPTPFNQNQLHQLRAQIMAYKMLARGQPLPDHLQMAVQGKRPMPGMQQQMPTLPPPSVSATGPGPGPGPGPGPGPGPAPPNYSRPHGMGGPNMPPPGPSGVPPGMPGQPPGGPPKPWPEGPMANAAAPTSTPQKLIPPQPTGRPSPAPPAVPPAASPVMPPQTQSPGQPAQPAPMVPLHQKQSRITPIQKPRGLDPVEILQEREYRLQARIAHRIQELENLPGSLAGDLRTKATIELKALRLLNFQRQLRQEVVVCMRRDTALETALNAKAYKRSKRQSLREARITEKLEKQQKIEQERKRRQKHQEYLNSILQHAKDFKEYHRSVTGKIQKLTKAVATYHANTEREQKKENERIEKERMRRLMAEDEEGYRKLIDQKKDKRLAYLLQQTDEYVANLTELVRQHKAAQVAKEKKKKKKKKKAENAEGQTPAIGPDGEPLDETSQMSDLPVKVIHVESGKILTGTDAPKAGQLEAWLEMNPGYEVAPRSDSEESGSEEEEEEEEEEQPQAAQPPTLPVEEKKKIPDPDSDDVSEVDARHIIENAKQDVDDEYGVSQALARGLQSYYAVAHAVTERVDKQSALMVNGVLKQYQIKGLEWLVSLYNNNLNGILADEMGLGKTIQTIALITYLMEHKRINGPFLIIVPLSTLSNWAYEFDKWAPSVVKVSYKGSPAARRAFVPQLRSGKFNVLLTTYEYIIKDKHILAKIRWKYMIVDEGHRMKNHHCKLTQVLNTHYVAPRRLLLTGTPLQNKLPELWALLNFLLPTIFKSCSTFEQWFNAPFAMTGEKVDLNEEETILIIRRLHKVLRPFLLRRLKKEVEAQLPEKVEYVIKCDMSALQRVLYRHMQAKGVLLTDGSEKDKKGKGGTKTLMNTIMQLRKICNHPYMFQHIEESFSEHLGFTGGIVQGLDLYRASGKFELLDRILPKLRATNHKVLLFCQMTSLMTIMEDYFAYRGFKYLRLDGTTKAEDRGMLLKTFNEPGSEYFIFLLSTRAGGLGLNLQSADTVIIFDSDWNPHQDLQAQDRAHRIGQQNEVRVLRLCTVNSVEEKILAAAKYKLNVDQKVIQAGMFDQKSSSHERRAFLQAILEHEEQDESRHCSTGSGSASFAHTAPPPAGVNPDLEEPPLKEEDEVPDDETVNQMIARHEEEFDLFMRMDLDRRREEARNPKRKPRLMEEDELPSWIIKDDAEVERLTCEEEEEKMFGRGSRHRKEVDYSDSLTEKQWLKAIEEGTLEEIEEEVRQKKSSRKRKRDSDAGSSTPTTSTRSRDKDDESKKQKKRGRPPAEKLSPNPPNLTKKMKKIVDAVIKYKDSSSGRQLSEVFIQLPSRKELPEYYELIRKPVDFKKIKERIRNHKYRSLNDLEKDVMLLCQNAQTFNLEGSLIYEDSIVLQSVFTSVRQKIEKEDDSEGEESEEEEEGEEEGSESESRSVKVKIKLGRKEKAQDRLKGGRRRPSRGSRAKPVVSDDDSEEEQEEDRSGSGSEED
Outline: as §1

Sequence of BRM (P51531 whole entry): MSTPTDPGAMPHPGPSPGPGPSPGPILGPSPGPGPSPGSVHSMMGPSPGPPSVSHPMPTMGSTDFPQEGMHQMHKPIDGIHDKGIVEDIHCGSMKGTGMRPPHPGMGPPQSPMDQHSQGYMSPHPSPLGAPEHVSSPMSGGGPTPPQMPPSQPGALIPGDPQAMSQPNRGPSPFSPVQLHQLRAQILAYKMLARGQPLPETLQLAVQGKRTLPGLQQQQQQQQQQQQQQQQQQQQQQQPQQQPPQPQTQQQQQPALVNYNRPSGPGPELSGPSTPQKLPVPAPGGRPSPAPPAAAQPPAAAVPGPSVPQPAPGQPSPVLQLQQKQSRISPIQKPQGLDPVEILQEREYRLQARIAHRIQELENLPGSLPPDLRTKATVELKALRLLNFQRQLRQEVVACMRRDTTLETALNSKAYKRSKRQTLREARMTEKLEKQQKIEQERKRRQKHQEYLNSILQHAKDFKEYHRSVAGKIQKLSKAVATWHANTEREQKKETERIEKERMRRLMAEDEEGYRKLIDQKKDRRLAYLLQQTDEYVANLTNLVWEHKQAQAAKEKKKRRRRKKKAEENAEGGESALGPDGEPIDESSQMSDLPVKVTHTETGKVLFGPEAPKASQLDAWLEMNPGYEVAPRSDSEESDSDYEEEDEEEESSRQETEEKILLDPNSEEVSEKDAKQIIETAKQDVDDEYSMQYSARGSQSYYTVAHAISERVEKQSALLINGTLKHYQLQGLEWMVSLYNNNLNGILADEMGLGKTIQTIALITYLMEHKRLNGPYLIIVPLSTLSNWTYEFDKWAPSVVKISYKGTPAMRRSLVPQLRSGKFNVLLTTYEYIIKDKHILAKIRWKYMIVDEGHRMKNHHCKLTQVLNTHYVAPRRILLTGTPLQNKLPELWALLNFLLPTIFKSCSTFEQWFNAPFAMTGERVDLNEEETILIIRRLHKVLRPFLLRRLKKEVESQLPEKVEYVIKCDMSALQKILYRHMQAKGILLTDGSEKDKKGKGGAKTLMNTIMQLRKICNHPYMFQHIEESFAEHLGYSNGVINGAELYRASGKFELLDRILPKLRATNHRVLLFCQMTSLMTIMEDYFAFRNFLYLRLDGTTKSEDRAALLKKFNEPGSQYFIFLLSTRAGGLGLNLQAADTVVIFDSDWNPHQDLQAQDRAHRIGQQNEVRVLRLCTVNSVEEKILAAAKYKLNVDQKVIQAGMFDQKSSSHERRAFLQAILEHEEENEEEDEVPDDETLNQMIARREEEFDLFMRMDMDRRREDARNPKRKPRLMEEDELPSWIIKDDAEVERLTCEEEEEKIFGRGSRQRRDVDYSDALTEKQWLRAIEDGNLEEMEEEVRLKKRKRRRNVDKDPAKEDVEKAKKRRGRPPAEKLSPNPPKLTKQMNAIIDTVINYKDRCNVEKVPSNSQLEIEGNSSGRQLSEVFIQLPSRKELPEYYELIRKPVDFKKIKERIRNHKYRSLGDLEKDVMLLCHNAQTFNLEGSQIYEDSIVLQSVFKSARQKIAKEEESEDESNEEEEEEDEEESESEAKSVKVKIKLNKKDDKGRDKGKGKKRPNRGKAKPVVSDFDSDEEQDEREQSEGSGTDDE

| SMILES | BRM Max % Inhibition (BRM) | IC50 (BRM) | IC50 (BRG-1) | Emax (BRG-1) | BRM Max % Inhibition (BRM; 30 nM BRM, 400 μM ATP) | IC50 (BRM; 30 nM BRM, 400 μM ATP) | IC50 (BRG-1; 30 nM BRG-1, 400 μM ATP) | Emax (BRG-1; 30 nM BRG-1, 400 μM ATP) |
| --- | --- | --- | --- | --- | --- | --- | --- | --- |
| C[C@@]1(F)COCc2ccc(C(=O)NCC(=O)Nc3nc(-c4ccccc4)cs3)cc21 [Compound 303, (S)-4-fluoro-4-methyl-N-(2-oxo-2-((4-phenylthiazol-2-yl)amino)ethyl)isochromane-6-carboxamide] | >95% | < 0.1 µM | 0.1 to 1 µM | > 95% | – | – | – | – |
| CC1(C#N)CCOc2ccc(C(=O)NCC(=O)Nc3nc(-c4cccc(C5CC5)n4)cs3)cc21 (stereo in doubt) [Compound 439, (S)-4-cyano-N-(2-((4-(6-cyclopropylpyridin-2-yl)thiazol-2-yl)amino)-2-oxoethyl)-4-methylchromane-6-carboxamide] | – | – | – | – | >95% | 0.1 to 1 µM | 1 to 5 µM | > 95% |
| Cc1cncc(-c2cccc(-c3csc(NC(=O)CNC(=O)c4ccc5c(c4)[C@@](C)(CO)CC5)n3)n2)n1 [Compound 164, (S)-3-(hydroxymethyl)-3-methyl-N-(2-((4-(6-(6-methylpyrazin-2-yl)pyridin-2-yl)thiazol-2-yl)amino)-2-oxoethyl)-2,3-dihydro-1H-indene-5-carboxamide] | >60% | 0.1 to 1 µM | > 5 µM | < 30% | – | – | – | – |
| C[C@@H]1CN(c2cccc(-c3csc(NC(=O)CNC(=O)c4ccc5c(c4)[C@@](C)(C#N)CCO5)n3)c2)C[C@H](C)O1 [Compound 255, (4S)-4-cyano-N-[2-[[4-[3-[(cis)-2,6-dimethylmorpholin-4-yl]phenyl]thiazol-2-yl]amino]-2-oxo-ethyl]-4-methyl-chromane-6-carboxamide] | >70% | 1 to 5 µM | > 5 µM | > 40% | – | – | – | – |
| COc1cc(-c2csc(NC(=O)CNC(=O)c3ccc4c(c3)[C@](C)(C#N)COC4)n2)ccn1 [Compound 400, (R)-4-cyano-N-(2-((4-(2-methoxypyridin-4-yl)thiazol-2-yl)amino)-2-oxoethyl)-4-methylisochromane-6-carboxamide] | >95% | < 0.1 µM | 0.1 to 1 µM | > 95% | – | – | – | – |
| C[C@@H]1CN(c2cccc(-c3csc(NC(=O)CNC(=O)c4cnc5c(c4)[C@@](C)(C#N)CC5)n3)c2)C[C@H](C)O1 [Compound 253, (S)-5-cyano-N-(2-((4-(3-((cis)-2,6-dimethylmorpholino)phenyl)thiazol-2-yl)amino)-2-oxoethyl)-5-methyl-6,7-dihydro-5H-cyclopenta[b]pyridine-3-carboxamide] | >90% | 1 to 5 µM | 1 to 5 µM | > 50% | – | – | – | – |
| Cc1cc(-c2cccc(-c3csc(NC(=O)CNC(=O)c4ccc5c(c4)[C@@](C)(CO)CCC5)n3)c2)cc(C)n1 [Compound 231, (S)-N-(2-((4-(3-(2,6-dimethylpyridin-4-yl)phenyl)thiazol-2-yl)amino)-2-oxoethyl)-8-(hydroxymethyl)-8-methyl-5,6,7,8-tetrahydronaphthalene-2-carboxamide] | >95% | < 0.1 µM | 0.1 to 1 µM | > 80% | – | – | – | – |
| C[C@@]1(CO)CCc2ccc(C(=O)NCC(=O)Nc3nc(-c4cccc(-c5cccnc5O)n4)cs3)cc21 [Compound 264, (R)-N-(2-((4-(2′-hydroxy-[2,3′-bipyridin]-6-yl)thiazol-2-yl)amino)-2-oxoethyl)-3-(hydroxymethyl)-3-methyl-2,3-dihydro-1H-indene-5-carboxamide] | >70% | 1 to 5 µM | > 5 µM | < 30% | – | – | – | – |
| CC1(C#N)CCOc2ccc(C(=O)NCC(=O)Nc3nc(-c4cccc([C@@H]5CC5(F)F)c4)cs3)cc21 (stereo in doubt) [Compound 429, (S)-4-cyano-N-(2-((4-(3-((S)-2,2-difluorocyclopropyl)phenyl)thiazol-2-yl)amino)-2-oxoethyl)-4-methylchromane-6-carboxamide] | – | – | – | – | >95% | < 0.1 µM | 1 to 5 µM | > 95% |
| CC1(C#N)CCOc2ccc(C(=O)NCC(=O)Nc3nc(-c4cccc([C@H]5CC5(F)F)c4)cs3)cc21 (stereo in doubt) [Compound 428, (S)-4-cyano-N-(2-((4-(3-((R)-2,2-difluorocyclopropyl)phenyl)thiazol-2-yl)amino)-2-oxoethyl)-4-methylchromane-6-carboxamide] | – | – | – | – | >95% | < 0.1 µM | 0.1 to 1 µM | > 95% |
| Cn1ncc2ccc(-c3csc(NC(=O)CNC(=O)c4ccc5c(c4)[C@@](C)(CO)CC5)n3)cc21 [Compound 261, (S)-3-(hydroxymethyl)-3-methyl-N-(2-((4-(1-methyl-1H-indazol-6-yl)thiazol-2-yl)amino)-2-oxoethyl)-2,3-dihydro-1H-indene-5-carboxamide] | >60% | 1 to 5 µM | > 5 µM | > 30% | – | – | – | – |
| C[C@@H]1CN(c2cccc(-c3csc(NC(=O)CNC(=O)c4ccc5c(c4)[C@](F)(C#N)COC5)n3)n2)C[C@H](C)O1 (single isomer, unassigned) [Compound 298] | >95% | 0.1 to 1 µM | 1 to 5 µM | > 95% | – | – | – | – |
| Cc1cc(-c2cccc(-c3csc(NC(=O)CNC(=O)c4ccc(C)c(C(C)(C)CN)c4)n3)c2)cc(C)n1 [Compound 92] | >95% | < 0.1 µM | 0.1 to 1 µM | > 95% | – | – | – | – |
| CC1(C)c2cc(C(=O)NCC(=O)Nc3nc(-c4cccc(-c5ccncc5)c4)cs3)ccc2C[C@H]1N [Compound 210, (R)-2-amino-3,3-dimethyl-N-(2-oxo-2-((4-(3-(pyridin-4-yl)phenyl)thiazol-2-yl)amino)ethyl)-2,3-dihydro-1H-indene-5-carboxamide] | >95% | < 0.1 µM | 0.1 to 1 µM | > 80% | – | – | – | – |
| C[C@@H]1CN(c2cccc(-c3csc(NC(=O)CNC(=O)c4cccc([C@@H]5COC[C@H]5O)c4)n3)n2)C[C@H](C)O1 [Compound 160, N-(2-((4-(6-((cis)-2,6-dimethylmorpholino)pyridin-2-yl)thiazol-2-yl)amino)-2-oxoethyl)-3-((3R,4S)-4-hydroxytetrahydrofuran-3-yl)benzamide] | >80% | 0.1 to 1 µM | > 5 µM | < 30% | – | – | – | – |
| CC1(CO)CCc2ccc(C(=O)NCC(=O)Nc3nc(-c4cccc(-c5ccncc5)c4)cs3)cc21 (centres unmarked) [Compound 102] | >95% | < 0.1 µM | 0.1 to 1 µM | > 80% | – | – | – | – |
| CO[C@H]1C[C@@](F)(c2cccc(C(=O)NCC(=O)Nc3nc(-c4cccc(N5C[C@@H](C)O[C@@H](C)C5)n4)cs3)c2)C1 [Compound 426, N-(2-((4-(6-((cis)-2,6-dimethylmorpholino)pyridin-2-yl)thiazol-2-yl)amino)-2-oxoethyl)-3-((cis)-1-fluoro-3-methoxycyclobutyl)benzamide] | – | – | – | – | >95% | 0.1 to 1 µM | 1 to 5 µM | > 95% |
| C[C@@H]1CN(c2cccc(-c3csc(NC(=O)CNC(=O)c4cccc([C@]5(C)C[C@H](O)C5)c4)n3)c2)C[C@H](C)O1 [Compound 393, N-(2-((4-(3-((cis)-2,6-dimethylmorpholino)phenyl)thiazol-2-yl)amino)-2-oxoethyl)-3-((1s,3s)-3-hydroxy-1-methylcyclobutyl)benzamide] | >95% | 0.1 to 1 µM | > 5 µM | > 95% | – | – | – | – |
| NCC1(c2cccc(C(=O)NCC(=O)Nc3nc(-c4cccc(-c5ccncc5)c4)cs3)c2)CC1 [Compound 72, 3-(1-(aminomethyl)cyclopropyl)-N-(2-oxo-2-((4-(3-(pyridin-4-yl)phenyl)thiazol-2-yl)amino)ethyl)benzamide] | >80% | 0.1 to 1 µM | > 5 µM | > 50% | – | – | – | – |
| CC(C)(CO)c1cccc(C(=O)NCC(=O)Nc2nc(-c3cccc(N4CCC(O)CC4)c3)cs2)c1 [Compound 247, 3-(2-hydroxy-1,1-dimethyl-ethyl)-N-[2-[[4-[3-(4-hydroxy-1-piperidyl)phenyl]thiazol-2-yl]amino]-2-oxo-ethyl]benzamide] | >95% | 0.1 to 1 µM | 0.1 to 1 µM | > 80% | – | – | – | – |
| COc1cccc(-c2csc(NC(=O)CNC(=O)c3ccc4c(c3)C(C)(C#N)CCO4)n2)c1 (stereo in doubt) [Compound 431, (S)-4-cyano-N-(2-((4-(3-methoxyphenyl)thiazol-2-yl)amino)-2-oxoethyl)-4-methylchromane-6-carboxamide] | – | – | – | – | >95% | < 0.1 µM | 0.1 to 1 µM | > 95% |
| C[C@@H]1CN(c2cccc(-c3csc(NC(=O)CNC(=O)c4cccc(C5(CO)CC5)c4)n3)n2)C[C@H](C)O1 [Compound 182, N-[2-[[4-[6-[(cis)-2,6-dimethylmorpholin-4-yl]-2-pyridyl]thiazol-2-yl]amino]-2-oxo-ethyl]-3-[1-(hydroxymethyl)cyclopropyl]benzamide] | >95% | < 0.1 µM | 0.1 to 1 µM | > 90% | – | – | – | – |
| O=C(CNC(=O)c1ccc2c(c1)[C@](F)(C(F)F)COC2)Nc1nc(-c2cc(F)cc(N3CCC3)c2)cs1 [Compound 276, (R)-N-(2-((4-(3-(azetidin-1-yl)-5-fluorophenyl)thiazol-2-yl)amino)-2-oxoethyl)-4-(difluoromethyl)-4-fluoroisochromane-6-carboxamide] | >95% | < 0.1 µM | < 0.1 µM | > 95% | – | – | – | – |

Source: US12685735B2 (Foghorn Therapeutics Inc., priority 2020, dated 2026)
